Source: patent US7427627B2, “N-(4-(4-methylthiazol-5-yl) pyrimidin-2-yl)-N-phenylamines as antiproliferative compounds” (Cyclacel Limited, priority 2001, dated 2008)
Like-named read-outs stand apart in the source and are kept apart here.

Experiments:
CDK4/cyclin D1 = CDK4/cyclin D1 (Homo sapiens, UniProt P11802); test: Kinase assay CDK4/cyclin D1;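 also: Enzyme: His6-tagged recombinant human CDK4 produced in baculovirus-infected Sf9 insect cells and purified by metal-chelate chromatography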
A549 = test: 72-h MTT cytotoxicity assay, A549; format: cell-based, human; settings: Homo sapiens, A549, read-out: 72-h MTT in vitro IC50 (μM) A549; Table 1; 72 h
Protocol: In short: cells were seeded into 96-well plates according to doubling time and incubated overnight at 37° C. Test compounds were made up in DMSO and a 1/3 dilution series prepared in 100 μL cell media, added to cells (in triplicates) and incubated for 72 ho at 37° C. MTT was made up as a stock of 5 mg/mL in cell media and filter-sterilised. Media was removed from cells followed by a wash with 200 μL PBS. MTT solution was then added at 20 μL per well and incubated in the dark at 37° C. for 4 h. MTT solution was removed and cells again washed with 200 μL PBS. MTT dye was solubilised with 200 μL per well of DMSO with agitation.

Saos-2 = test: 72-h MTT cytotoxicity assay, Saos-2; format: cell-based; settings: Homo sapiens, SAOS-2, read-out: 72-h MTT in vitro IC50 (μM) Saos-2; Table 1; 72 h
Protocol: (§1) The compounds from the examples above were subjected to a standard cellular proliferation assay using human tumour cell lines obtained from the ATCC (American Type Culture Collection, 10801 University Boulevard, Manessas, Va. 20110-2209, USA). Standard 72-h MTT (thiazolyl blue; 3-[4,5-dimethylthiazol-2-yl]-2,5-diphenyltetrazolium bromide) assays were performed (Haselsberger, K.; Peterson, D. C.; Thomas, D. G.; Darling, J. L. Anti Cancer Drugs 1996, 7, 331-8; Loveland, B. E.; Johns, T. G.; Mackay, I. R.; Vaillant, F.; Wang, Z. X.; Hertzog, P. J. Biochemistry International 1992, 27, 501-10). In short: cells were seeded into 96-well plates according to doubling time and incubated overnight at 37° C. Test compounds were made up in DMSO and a 1/3 dilution series prepared in 100 μL cell media, added to cells (in triplicates) and incubated for 72 ho at 37° C. MTT was made up as a stock of 5 mg/mL in cell media and filter-sterilised. Media was removed from cells followed by a wash with 200 μL PBS. MTT solution was then added at 20 μL per well and incubated in the dark at 37° C. for 4 h. MTT solution was removed and cells again washed with 200 μL PBS. MTT dye was solubilised with 200 μL per well of DMSO with agitation.

HT29 = test: 72-h MTT cytotoxicity assay, HT29; format: cell-based; settings: Homo sapiens, HT-29, read-out: 72-h MTT in vitro IC50 (μM) HT29; Table 1; 72 h
Protocol: as §1

CDK2/cyclin E = molecular target: T1, CDK2/cyclin E (Homo sapiens, UniProt P24941); test: Kinase assay CDK2/cyclin E; format: biochemical; settings: Table 1; read-out: Kinase inhibition, IC50 (μM) CDK2/E
T1 construct: His6

Sequence of CDK4/cyclin D1 (P11802 whole entry): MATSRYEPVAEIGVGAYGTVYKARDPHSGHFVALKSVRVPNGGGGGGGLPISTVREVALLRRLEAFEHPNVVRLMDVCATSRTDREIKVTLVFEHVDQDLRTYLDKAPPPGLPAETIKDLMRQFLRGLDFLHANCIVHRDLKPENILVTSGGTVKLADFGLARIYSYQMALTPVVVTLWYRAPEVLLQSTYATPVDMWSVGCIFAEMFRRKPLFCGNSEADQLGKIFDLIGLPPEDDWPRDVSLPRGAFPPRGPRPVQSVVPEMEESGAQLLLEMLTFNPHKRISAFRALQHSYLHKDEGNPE
Sequence of CDK4/cyclin D1 (P24385 whole entry partner): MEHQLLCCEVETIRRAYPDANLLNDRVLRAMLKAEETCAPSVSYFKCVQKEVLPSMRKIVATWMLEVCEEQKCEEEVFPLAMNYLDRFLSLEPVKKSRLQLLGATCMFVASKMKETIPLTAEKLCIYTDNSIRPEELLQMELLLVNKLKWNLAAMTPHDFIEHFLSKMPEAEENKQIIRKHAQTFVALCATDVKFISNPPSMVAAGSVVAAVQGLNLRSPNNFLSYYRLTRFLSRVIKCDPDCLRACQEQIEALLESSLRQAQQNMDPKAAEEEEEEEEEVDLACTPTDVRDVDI

| IC50 (CDK4/cyclin D1) [µM] | IC50 (CDK2/cyclin E) [µM] | IC50 (CDK4/cyclin D1; read-out: Kinase inhibition, IC50 (μM) CDK4/D1, Table 1) [µM] | SMILES | IC50 (A549) [µM] | IC50 (Saos-2) [µM] | IC50 (HT29) [µM] |
| --- | --- | --- | --- | --- | --- | --- |
| 0.86 | 0.07 |  | Cc1nc(NC(=O)CCl)sc1-c1ccnc(Nc2cccc([N+](=O)[O-])c2)n1 [Compound 60, 2-Chloro-N-{4-methyl-5-[2-(3-nitro-phenylamino)-pyrimidin-4-yl]-thiazol-2-yl}-acetamide] | 0.15 | 0.21 | 0.25 |
| 0.68 | 0.23 |  | Cc1nc(NC(=O)CCl)sc1-c1ccnc(Nc2ccc(F)cc2)n1 [Compound 61, 2-Chloro-N-{5-[2-(4-fluoro-phenylamino)-pyrimidin-4-yl]-4-methyl-thiazol-2-yl}-acetamide] | 0.33 | 0.3 | 0.11 |

More lines, now with the values behind:

| SMILES | IC50 (CDK4/cyclin D1) [µM] | IC50 (CDK2/cyclin E) [µM] | IC50 (CDK4/cyclin D1; read-out: Kinase inhibition, IC50 (μM) CDK4/D1, Table 1) [µM] | IC50 (A549) [µM] | IC50 (Saos-2) [µM] | IC50 (HT29) [µM] |
| --- | --- | --- | --- | --- | --- | --- |
| COc1ccc(Nc2nccc(-c3sc(=O)n(C)c3C)n2)cc1 [Compound 36, 5-[2-(4-Methoxy-phenylamino)-pyrimidin-4-yl]-3,4-dimethyl-3H-thiazol-2-one] | 0.96 | 0.25 |  | 0.68 | 3.53 | 0.69 |
| Cc1c(-c2ccnc(Nc3cccc(O)c3)n2)sc(=O)n1C [Compound 37, 5-[2-(3-Hydroxy-phenylamino)-pyrimidin-4-yl]-3,4-dimethyl-3H-thiazol-2-one] | 1.41 | 0.12 |  | 0.66 | 0.98 | 1.99 |
| Cc1c(-c2ccnc(Nc3ccc(F)c([N+](=O)[O-])c3)n2)sc(=O)n1C [Compound 38, 5-[2-(4-Fluoro-3-nitro-phenylamino)-pyrimidin-4-yl]-3,4-dimethyl-3H-thiazol-2-one] | 2.33 | 0.12 |  | 1.12 | 2.17 | 0.55 |
| Cc1ccc(Nc2nccc(-c3sc(=O)n(C)c3C)n2)cc1I [Compound 40, 5-[2-(3-Iodo-4-methyl-phenylamino)-pyrimidin-4-yl]-3,4-dimethyl-3H-thiazol-2-one] |  | 0.7 | 3.98 | 6.63 | 22 | 7.74 |
| Cc1nc(NS(C)(=O)=O)sc1-c1ccnc(Nc2cccc([N+](=O)[O-])c2)n1 [Compound 56, N-{4-Methyl-5-[2-(3-nitro-phenylamino)-pyrimidin-4-yl]-thiazol-2-yl}-methane sulfonamide] | 1.13 | 0.01 |  | 0.1 | 0.16 | 0.17 |
| Cc1nc(NCCO)sc1-c1ccnc(Nc2cccc([N+](=O)[O-])c2)n1 [Compound 58, 2-{4-Methyl-5-[2-(3-nitro-phenylamino)-pyrimidin-4-yl]-thiazol-2-ylamino}-ethanol] | 0.11 | 0.004 |  | 0.01 | 0.06 | 0.09 |
